In patent publication US10301317B2, “Inhibitors of ERK and methods of use” (Kura Oncology, Inc., priority 2013, dated 2019):

Tested on: phospho-p90 RSK (RSK1 Thr359/Ser363) in A375 (Braf V600E) cells
Assay: Phospho-p90 RSK ELISA using A375 (Braf V600E) cells
Type: cell-based
Conditions: Homo sapiens, A-375, 2 hours compound treatment, read-out: Cellular Phospho-p90RSK IC50
Description: In preparation for the assay, an ELISA plate with the pre-coated goat anti-mouse antibody (Thermo Scientific) was treated with a mouse anti-human RSK1 antibody (monoclonal, Invitrogen) at 1:800 dilution (150 ng/well) in PBS, and the plate was placed on a plate shaker at 4° C. overnight. […] After two […] of the compound treatment, the supernatant was removed from the cell plate, and cells were lysed in 100 μl per well of cell lysis buffer (Cell Signaling Technologies) containing phosphatase and protease inhibitors (Cell Signaling Technologies) on a plate shaker at 4° C. for 20 minutes. The ELISA plate was washed four times with ELISA wash buffer (Thermo Scientific) prior to addition of 100 μL cell lysate. The lysate was incubated on the ELISA plate with gentle shaking at room temperature for 2 hours. The contents of the wells were removed, and the ELISA plate was washed four times with wash buffer, and incubated with 100 μL per well of anti-phospho-RSK1 (Thr359/Ser363) rabbit monoclonal antibody (Millipore) at dilution of 1:1000 in StartingBlock buffer (Thermo Scientific) on a plate shaker at room temperature for 1 hour. The contents of the wells were removed, the ELISA plate was washed four times with wash buffer, and was incubated with 100 μL per well of goat anti-rabbit HRP (Thermo Scientific) at dilution of 1:3000 in StartingBlock buffer (Thermo Scientific) on a plate shaker at room temperature for 1 hour. The contents of the wells were removed, the ELISA plate was washed four times with wash buffer, and then incubated with 100 μL per well of TMB substrate solution (Thermo Scientific) on a plate shaker at room temperature for 20 minutes. Finally, 100 μL of TMB stop solution (Thermo Scientific) was added to each well and the absorbance is measured at 450 nm on a Tecan plate reader.

IC50	SMILES
250 to 1000 nM	Cc1cc(-c2n[nH]c3cc4c(cc23)CN([C@@H]2CCCN(CC3CCC3)C2)C(=O)N4)ccn1 [Example 137]
> 1000 nM	Cc1cc(-c2n[nH]c3cc4c(cc23)CN([C@@H]2CCN(CC3CCCC3)C2)C(=O)N4)ccn1 [Example 206]
250 to 1000 nM	COc1ncc(-c2n[nH]c3cc4c(cc23)CN([C@@H]2CN(C)C[C@H]2c2ccccc2)C(=O)N4)cn1 (mixture of isomers) [Example 355]
≤ 250 nM	COc1ncc(-c2n[nH]c3cc4c(cc23)CN([C@H](C)c2cccc(Cl)c2)C(=O)N4)cn1 [Example 71]
≤ 250 nM	Cn1cc(-c2n[nH]c3cc4c(cc23)CN([C@@H]2CN(CC(F)(F)F)C[C@H]2c2ccccc2)C(=O)N4)cn1 [Example 352]
≤ 250 nM	Cc1cc(-c2n[nH]c3cc4c(cc23)CN([C@@H]2CN(CC(F)F)C[C@H]2c2ccccc2)C(=O)N4)cc(C)n1 [Example 386]
> 1000 nM	O=C1Nc2cc3[nH]nc(-c4ccc(=O)[nH]c4)c3cc2CN1Cc1cccc(Cl)c1 [Example 61]
≤ 250 nM	Cn1cc(-c2n[nH]c3cc4c(cc23)CN([C@@H]2CCCN(Cc3cccs3)C2)C(=O)N4)cn1 [Example 298]
250 to 1000 nM	Cc1cc(-c2n[nH]c3cc4c(cc23)CN([C@@H]2CCCN(C(=O)c3ccccc3)C2)C(=O)N4)ccn1 [Example 172]
250 to 1000 nM	Cc1cc(-c2n[nH]c3cc4c(cc23)CN(C2CCOCC2)C(=O)N4)ccn1 [Example 44]
> 1000 nM	COc1ncc(-c2n[nH]c3cc4c(cc23)CN([C@H]2CCCN(Cc3ccccc3)C2)C(=O)N4)cn1 [Example 365]
> 1000 nM	Cc1ncccc1-c1n[nH]c2cc3[nH]c(=O)c(C(C)c4ccccc4)cc3cc12 (stereo not shown) [Example 335]
≤ 250 nM	O=C1Nc2cc3[nH]nc(-c4cccnc4)c3cc2CN1Cc1cccc(Cl)c1 [Example 57]
≤ 250 nM	O=C1Nc2cc3[nH]nc(-c4cccnc4)c3cc2CN1[C@@H]1CN(CC(F)(F)F)C[C@H]1c1ccccc1 [Example 341]
≤ 250 nM	Cc1cc(-c2n[nH]c3cc4c(cc23)CN([C@H]2CCN(CC(F)(F)F)C2)C(=O)N4)ccn1 [Example 299]
≤ 250 nM	Cc1cc(-c2n[nH]c3cc4c(cc23)CN(Cc2ccccc2Cl)C(=O)N4)ccn1 [Example 217]
≤ 250 nM	CC(c1ccccc1)c1cc2cc3c(-c4ccc(=O)n(C)c4)n[nH]c3cc2[nH]c1=O (stereo not shown) [Example 347]
> 1000 nM	Cc1cc(-c2n[nH]c3cc4c(cc23)CN([C@@H]2CCCN(Cc3cnn(C)c3)C2)C(=O)N4)ccn1 [Example 133]
≤ 250 nM	COc1ccc(-c2n[nH]c3cc4c(cc23)CN([C@@H]2CCN(CC(F)(F)F)C2)C(=O)N4)cn1 [Example 277]
250 to 1000 nM	Cc1cc(-c2n[nH]c3cc4c(cc23)CN([C@@H]2CCCN(Cc3cnccc3C)C2)C(=O)N4)ccn1 [Example 183]
250 to 1000 nM	CC(C)c1cc(-c2n[nH]c3cc4c(cc23)CN(Cc2cccc(Cl)c2)C(=O)N4)ccn1 [Example 230]
250 to 1000 nM	C[C@H](c1cccc(Cl)c1)N1Cc2cc3c(-c4ccnnc4)n[nH]c3cc2NC1=O [Example 111]

IC50	SMILES
≤ 250 nM	Cn1nccc1-c1n[nH]c2cc3c(cc12)CN([C@@H]1CCCN(Cc2ccccc2)C1)C(=O)N3 [Example 261]
> 1000 nM	Cc1cc(-c2n[nH]c3cc4c(cc23)CN([C@H]2CN(C(C)C)C[C@@H]2c2ccccc2)C(=O)N4)ccn1 [Example 296]
250 to 1000 nM	Cc1cc(-c2n[nH]c3cc4c(cc23)CN(C2CN(Cc3ccccc3)C2)C(=O)N4)ccn1 [Example 191]
≤ 250 nM	COc1ccc(-c2n[nH]c3cc4c(cc23)CN(Cc2ccc(F)cc2)C(=O)N4)cn1 [Example 76]
> 1000 nM	N#Cc1cccc(CN2Cc3cc4c(-c5ccnnc5)n[nH]c4cc3NC2=O)c1 [Example 128]
250 to 1000 nM	Cc1cc(-c2n[nH]c3cc4c(cc23)CN(Cc2nccs2)C(=O)N4)ccn1 [Example 56]
≤ 250 nM	Cc1cc(-c2n[nH]c3cc4[nH]c(=O)c(C(C)c5ccc(F)cc5F)cc4cc23)ccn1 (stereo not shown) [Example 312]
≤ 250 nM	Cc1cc(-c2n[nH]c3cc4c(cc23)CN([C@@H]2CCCN(Cc3ccc(F)s3)C2)C(=O)N4)ccn1 [Example 290]
250 to 1000 nM	Cc1cc(-c2n[nH]c3cc4c(cc23)CN([C@@H]2CCCN(CC(=O)C(C)C)C2)C(=O)N4)ccn1 [Example 209]
> 1000 nM	Cc1cc(-c2n[nH]c3cc4c(cc23)CN([C@H]2CN(CC(F)F)C[C@@H]2c2ccccc2)C(=O)N4)ccn1 [Example 383]
≤ 250 nM	Cc1cc(-c2n[nH]c3cc4c(cc23)CN([C@@H]2CN(CCC#N)C[C@H]2c2ccccc2)C(=O)N4)ccn1 (mixture of isomers) [Example 356]
≤ 250 nM	Cn1cc(-c2n[nH]c3cc4c(cc23)CN([C@@H]2CCN(CC(F)(F)F)C2)C(=O)N4)cn1 [Example 259]
≤ 250 nM	CC(c1ccccc1)c1cc2cc3c(-c4cnc(N)nc4)n[nH]c3cc2[nH]c1=O (stereo not shown) [Example 334]
> 1000 nM	Cc1cc(-c2n[nH]c3cc4c(cc23)CN([C@H]2CCCN(Cc3ccccc3)C2)C(=O)N4)cc(C)n1 [Example 363]
250 to 1000 nM	Cc1cc(-c2n[nH]c3cc4c(cc23)CN(C2CCOC(C)(C)C2)C(=O)N4)ccn1 (stereo not shown) [Example 219]
≤ 250 nM	Cc1ccc(-c2n[nH]c3cc4c(cc23)CN([C@@H]2CCN(CC(F)(F)F)C2)C(=O)N4)cn1 [Example 274]
≤ 250 nM	Cn1cc(-c2n[nH]c3cc4c(cc23)CN([C@@H]2CN(CC(F)(F)F)C[C@H]2c2ccccc2)C(=O)N4)ccc1=O [Example 346]
250 to 1000 nM	COc1ncc(-c2n[nH]c3cc4[nH]c(=O)c(C(C)c5cccc(Cl)c5)cc4cc23)cn1 (stereo not shown) [Example 129]
> 1000 nM	Cc1cc(-c2n[nH]c3cc4c(cc23)CN([C@@H]2CCCN(C(C)C)C2)C(=O)N4)ccn1 [Example 247]
250 to 1000 nM	Cc1cc(-c2n[nH]c3cc4c(cc23)CN([C@@H]2CCCN(C3CCCCC3)C2)C(=O)N4)ccn1 [Example 194]
≤ 250 nM	Cc1cc(-c2n[nH]c3cc4c(cc23)CN(Cc2cccc(C#N)c2)C(=O)N4)ccn1 [Example 55]
> 1000 nM	CN(C)CCN1CCN(c2n[nH]c3cc4c(cc23)CN(Cc2ccc(F)c(Cl)c2)C(=O)N4)CC1 [Example 260]

IC50	SMILES
> 1000 nM	Cc1cc(-c2n[nH]c3cc4c(cc23)CN(CCN2CCOCC2)C(=O)N4)ccn1 [Example 51]
> 1000 nM	O=C1Nc2cc3[nH]nc(C4CC4)c3cc2CN1Cc1ccc(F)c(Cl)c1 [Example 42]
≤ 250 nM	Cc1cc(-c2n[nH]c3cc4c(cc23)CN(CCc2cccc(Cl)c2)C(=O)N4)ccn1 [Example 50]
250 to 1000 nM	Cc1cc(-c2n[nH]c3cc4c(cc23)CN([C@@H]2CCCN(Cc3ccc(Cl)cc3)C2)C(=O)N4)ccn1 [Example 159]
≤ 250 nM	Cc1cc(-c2n[nH]c3cc4c(cc23)CN([C@@H]2CN(CC(F)(F)F)C[C@H]2c2ccc(F)cc2)C(=O)N4)ccn1 (racemic) [Example 300]
> 1000 nM	Cc1cc(-c2n[nH]c3cc4c(cc23)CN([C@@H]2CCN(C)C2)C(=O)N4)ccn1 [Example 255]
250 to 1000 nM	Cc1cc(-c2n[nH]c3cc4c(cc23)CN([C@@H]2CCN(CCC(C)C)C2)C(=O)N4)ccn1 [Example 207]
250 to 1000 nM	Cc1cc(-c2n[nH]c3cc4c(cc23)CN([C@@H]2CN(C3CCOCC3)C[C@H]2c2ccccc2)C(=O)N4)ccn1 (mixture of isomers) [Example 359]
≤ 250 nM	Cc1cc(-c2n[nH]c3cc4c(cc23)CN(C(C)C2CCCC2)C(=O)N4)ccn1 (stereo not shown) [Example 294]
> 1000 nM	Cn1nccc1-c1n[nH]c2cc3c(cc12)CN([C@@H]1CN(CC(F)(F)F)C[C@H]1c1ccccc1)C(=O)N3 [Example 350]
≤ 250 nM	COc1cc(-c2n[nH]c3cc4[nH]c(=O)c(C5CCCN(Cc6ccccc6)C5)cc4cc23)ccn1 (stereo not shown) [Example 370]
> 1000 nM	Cn1nccc1-c1n[nH]c2cc3c(cc12)CN([C@@H]1CCN(CC(F)(F)F)C1)C(=O)N3 [Example 265]
250 to 1000 nM	Cc1cc(-c2n[nH]c3cc4c(cc23)CN([C@@H]2CCCN(CCC3CC3)C2)C(=O)N4)ccn1 [Example 155]
> 1000 nM	Cc1cc(-c2n[nH]c3cc4c(cc23)CN(CCO)C(=O)N4)ccn1 [Example 43]
≤ 250 nM	Cc1cc(-c2n[nH]c3cc4c(cc23)CN(Cc2nc(C)cs2)C(=O)N4)ccn1 [Example 246]
> 1000 nM	Cc1cc(-c2n[nH]c3cc4c(cc23)CN(CCc2ccc(F)cc2)CC(=O)N4)ccn1 [Example 67]
≤ 250 nM	Cc1ncc(-c2n[nH]c3cc4c(cc23)CN([C@@H]2CN(CC(F)(F)F)C[C@H]2c2ccccc2)C(=O)N4)cn1 [Example 349]
250 to 1000 nM	Cc1cc(-c2n[nH]c3cc4c(cc23)CN([C@@H]2CCC[C@H](NCc3ccccc3)C2)C(=O)N4)ccn1 [Example 177]
≤ 250 nM	Cc1cc(-c2n[nH]c3cc4[nH]c(=O)c(C5CCCN(Cc6cc(F)ccc6F)C5)cc4cc23)ccn1 (stereo not shown) [Example 336]
> 1000 nM	O=C1Nc2cc3[nH]nc(-c4ccc(F)cc4)c3cc2CN1Cc1ccc(F)c(Cl)c1 [Example 40]
